# In patent publication US5916586A, “Personal cleansing system comprising polymeric diamond-mesh bath sponge and liquid cleanser with deodorant composition” (priority 1996, dated 1999):
# Tests used:
# [1] = Morpholine test: depression of partial vapor pressure of morpholine beyond Raoult's Law (headspace GC); conditions: morpholine 0.25 g + material 1 g, 37° C., 30 minutes equilibrium, headspace gas chromatography
# lipoxidase (ECI.13.1.13) = molecular target: T1, lipoxidase (ECI.13.1.13) (Glycine max, UniProt P08170); assay: Lipoxidase test: inhibition of oxidation of linoleic acid by lipoxidase; format: biochemical; conditions: test substrate made with 0.5% by weight solution of material in ethanol, borate buffer pH 9.0, increase in OD at 234 nm
# T1 sequence (P08170 1-839): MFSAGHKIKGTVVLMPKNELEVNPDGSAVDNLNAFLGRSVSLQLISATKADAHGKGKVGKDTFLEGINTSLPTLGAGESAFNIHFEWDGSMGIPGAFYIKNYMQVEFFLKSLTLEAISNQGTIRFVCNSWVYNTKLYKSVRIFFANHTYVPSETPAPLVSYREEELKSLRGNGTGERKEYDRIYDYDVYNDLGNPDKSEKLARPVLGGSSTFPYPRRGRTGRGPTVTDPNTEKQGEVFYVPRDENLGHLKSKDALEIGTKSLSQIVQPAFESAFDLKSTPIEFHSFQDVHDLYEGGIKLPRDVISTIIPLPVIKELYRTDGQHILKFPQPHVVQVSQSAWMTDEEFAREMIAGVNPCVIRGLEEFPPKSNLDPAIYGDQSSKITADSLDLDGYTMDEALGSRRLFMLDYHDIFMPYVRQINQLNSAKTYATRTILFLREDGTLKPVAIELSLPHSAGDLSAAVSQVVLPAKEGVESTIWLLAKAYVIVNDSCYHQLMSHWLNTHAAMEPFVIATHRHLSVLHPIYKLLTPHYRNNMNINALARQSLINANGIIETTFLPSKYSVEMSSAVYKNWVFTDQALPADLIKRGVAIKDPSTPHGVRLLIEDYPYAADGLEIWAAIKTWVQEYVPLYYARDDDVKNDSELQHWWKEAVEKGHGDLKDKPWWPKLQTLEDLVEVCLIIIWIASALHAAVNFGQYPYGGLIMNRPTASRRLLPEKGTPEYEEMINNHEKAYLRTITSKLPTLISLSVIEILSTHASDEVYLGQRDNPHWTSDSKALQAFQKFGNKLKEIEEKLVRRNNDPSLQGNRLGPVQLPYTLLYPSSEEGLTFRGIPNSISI
smiles,measurement,setting,value
COC(=O)c1c(C)cc(O)c(C)c1O [LRG 201],RVR (Raoult variance ratio),[1],1.21
same,"LIC (lipoxidase-inhibiting capacity, % inhibition)",lipoxidase (ECI.13.1.13),100%
